Columns and labels:
HLF cells [1] = test: MTT cytotoxicity evaluation in HLF cells; format: cell-based, human; details: concentrations of 15 and 20 μM, incubated for 24 hours, compared to untreated control
Description: (§1) To confirm the effect of novel flavone derivative I on cell viability, human lung fibroblasts (HLF) were used to examine cell viability with MTT [3-(4,5-dimethylthiazol-2-yl)-2,5-diphenyltetrazolium bromide]. After being suspended in a medium, HLF cells were dispensed into a 96-well plate and incubated for 24 hours. […] After incubation, all media was removed, and MTT was diluted (0.5 mg/mL) in phosphate-buffered saline (PBS). Then, 200 μL of the diluted MTT was dispensed into each well, and incubation was performed in a CO2 incubator for 4 hours. After 4 hours, the MTT solution was removed, and 160 μL of dimethyl sulfoxide (DMSO) was dispensed into each well to dissolve the formazan precipitate for 30 minutes. Next, the absorbance was measured at 570 nm.
(§2) Cytotoxicity tests of novel flavone derivative II (Achem II) on A549 cells, HULEC-5a cells, and HLF cells were performed in the same manner as in Example 1 above, using the MTT assay. The results thereof are shown in FIGS. 17 to 19 as cell viability (%) after 24, 48, and 72 hours compared to that of the control group, the untreated sample group.
as §2, with “III” for “II”, “III)” for “II)”, “27” for “17”, “29” for “19”

HLF cells [2] = test: Effect upon TGF-β1 treatment in HLF cells (western blot of protein levels); format: cell-based, human; details: 5 ng/mL TGF-β1 and compound, 24 hours, FIG. 32
Description: After suspending 5×10^6 human lung fibroblast (HLF) cells in a medium, […] dispensed into a 100-mm plate, and incubated for 24 hours. […] After 24 and 48 hours of incubation, the cells were lysed with RIPA lysis buffer ([50 mM Tris]-Cl (pH, 7.4), 1% NP-40, 150 mM NaCl, 1 mM EDTA, and 1 mM phenylmethylsulfonyl fluoride (PMSF)) containing MG-132 (10 μM, proteasome inhibitor, protect the HIF-1α subunit from proteasome degradation). Next, only the supernatant was collected by centrifugation (at 13,000 rpm for 7 minutes) at 4° C., and the proteins were separated by SDS-polyacrylamide gel electrophoresis (SDS-PAGE). The separated proteins were transferred to a polyvinylidene difluoride membrane (PVDF membrane), reacted in 5% nonfat dry milk for 2 hours, and then reacted with primary antibodies at 4° C. overnight. After overnight, the proteins further reacted with secondary antibodies corresponding to the respective primary antibodies. Then, the protein band was examined, according to the manufacturer's protocol, using an ECL kit.
The effect of novel flavone derivative II upon TGF-β1 treatment in HLF cells was evaluated in the same manner as in Example 1 above.
The effect of novel flavone derivative III upon TGF-β1 treatment in HLF cells was evaluated in the same manner as in Example 1 above.

A549 cells [3] = test: Effect upon TGF-β1 treatment in A549 cells (western blot of protein levels); format: cell-based; details: 5 ng/mL TGF-β1 and compound, 24 hours, FIG. 30
Description: 3.5*10^5 A549 cells, derived from lung cancer, were suspended in a medium, dispensed into a 60-mm plate, and incubated for 48 hours. After 48 hours of incubation, each plate was treated with TGF-β1 (10 ng/ml) alone or in combination with novel flavone derivative I at varying concentrations or a predetermined concentration and/or nintedanib (NIDB), a therapeutic drug for idiopathic pulmonary fibrosis and interstitial lung disease as a positive control. […] Next, only the supernatant was collected by centrifugation (at 14,000 rpm for 10 minutes) at 4° C., and the proteins were separated by SDS-polyacrylamide gel electrophoresis (SDS-PAGE). The separated proteins were transferred to a polyvinylidene difluoride membrane (PVDF membrane), reacted in 5% nonfat dry milk for 3 hours, and then reacted with primary antibodies at 4° C. for 12 hours. After 12 hours, the proteins further reacted with secondary antibodies corresponding to the respective primary antibodies. Then, the protein band was examined, according to the manufacturer's protocol, using an ECL kit.
The effect of novel flavone derivative II upon TGF-β1 treatment in A549 cells was evaluated in the same manner as in Example 1 above. FIGS. 20 and 21 show the results thereof.
The effect of novel flavone derivative III upon TGF-β1 treatment in A549 cells was evaluated in the same manner as in Example 1 above.

HULEC-5a cells [4] = test: MTT cytotoxicity evaluation in HULEC-5a cells; format: cell-based, human; details: compared to untreated control
Description: as §1, with “viability, HULEC-5a,” for “viability,”, “microvascular endothelial cells,” for “fibroblasts (HLF)”, “HULEC-5a” for “HLF”
as §2
as §2, with “III” for “II”, “III)” for “II)”, “27” for “17”, “29” for “19”

A549 cells [5] = test: MTT cytotoxicity evaluation in A549 cells; format: cell-based; details: all treatment concentrations up to 20 μM, incubated for 24, 48, and 72 hours, compared to untreated control
Description: To confirm the effect of novel flavone derivative I on cell viability, A549 cells, derived from lung cancer, were used to examine cell viability with MTT [3-(4,5-dimethylthiazol-2-yl)-2,5-diphenyltetrazolium bromide]. After being suspended in a medium, A549 cells were dispensed into a 96-well plate and incubated for 24 hours. After 24 hours, 200 μL of a medium containing 0 to 20 μM BGC was added to each well of the plate and incubated for 24 or 48 hours. After incubation, MTT was diluted (0.5 mg/ml) in phosphate-buffered saline (PBS). Then, 20 μL of the diluted MTT was dispensed into each well, and incubation was performed in a CO2 incubator for 4 hours. After 4 hours, the MTT solution was removed, and 200 μL of dimethyl sulfoxide (DMSO) was dispensed into each well to dissolve the formazan precipitate for 5 minutes. Next, the absorbance was measured at 595 nm.
as §2
as §2, with “III” for “II”, “III)” for “II)”, “27” for “17”, “29” for “19”

HULEC-5a cells [6] = test: Effect upon TGF-β1 treatment in Hulec-5a cells (western blot of protein levels); format: cell-based, human; details: Hulec-5a cells, 5 ng/mL TGF-β1 and compound, 24 hours, FIG. 31
Description: 1.2×10^6 Hulec-5a cells, derived from pulmonary vessels, were suspended in a medium, dispensed into a 100-mm plate, and incubated for 24 hours. After 24 hours of incubation, each plate was treated with TGF-β1 (10 ng/ml) alone or in combination with novel flavone derivative I at varying concentrations or a predetermined concentration and/or nintedanib (NIDB), a therapeutic drug for idiopathic pulmonary fibrosis and interstitial lung disease. After 3, 24, and 48 hours of incubation, the cells were lysed with RIPA lysis buffer ([50 mM Tris]-Cl (pH, 7.4), 1% NP-40, 150 mM NaCl, 1 mM EDTA, and 1 mM phenylmethylsulfonyl fluoride (PMSF)) containing MG-132 (10 μM, proteasome inhibitor, protect the HIF-1α subunit from proteasome degradation). Next, only the supernatant was collected by centrifugation (at 13,000 rpm for 7 minutes) at 4° C., and the proteins were separated by SDS-polyacrylamide gel electrophoresis (SDS-PAGE). The separated proteins were transferred to a polyvinylidene difluoride membrane (PVDF membrane), reacted in 5% nonfat dry milk for 2 hours, and then reacted with primary antibodies at 4° C. overnight. After overnight, the proteins further reacted with secondary antibodies corresponding to the respective primary antibodies. Then, the protein band was examined, according to the manufacturer's protocol, using an ECL kit.
The effect of novel flavone derivative II upon TGF-β1 treatment in Hulec-5a cells was evaluated in the same manner as in Example 1 above.
The effect of novel flavone derivative III upon TGF-β1 treatment in Hulec-5a cells was evaluated in the same manner as in Example 1 above.

COc1ccc(-c2c(-c3ccc(O)c(OC)c3)oc3cc(OC)c(OC)cc3c2=O)cc1 [novel flavone derivative III, 2-(4-hydroxy-3-methoxyphenyl)-6,7-dimethoxy-3-(4-methoxyphenyl)-4H-chromen-4-one]
cell viability (HLF cells [1]): ≤ 80% | levels of fibronectin, COL4, COL1, α-SMA, HIF-1α, and NOX2, increased by TGF-β1 treatment (HLF cells [2]): decreased | levels of fibronectin, COL4, and COL3, increased by TGF-β1 treatment (A549 cells [3]): decreased | cell viability (HULEC-5a cells [4]; concentration of 20 μM, incubated for 24 hours): ≤ 80% | cell viability (HULEC-5a cells [4]; concentrations up to 15 μM, incubated for 24, 48, and 72 hours): ≥ 80% | cell viability (A549 cells [5]): ≥ 80% | levels of fibronectin, COL4, and COL3, increased by TGF-β1 treatment (HULEC-5a cells [6]): decreased

— US20240300913A1, “FLAVONE DERIVATIVE AND USE THEREOF FOR IMPROVING PULMONARY FIBROSIS” (A-CHEMBIO CO., LTD, priority 2023, published 2024)
